# What was measured:
# healthy donor platelets [1] = test: FFN246 release from platelets activated with A23187 at varying FFN246 concentrations (Example 2, FIG. 1); type: cell-based; conditions: for MFI of platelet releasate, FFN246+A23187: A23187 45 min
# Source text: Calcium (Ca) ionophores mobilize calcium ions from intracellular storage sites or transport it through the plasma membrane to increase the concentration of cytoplasmic calcium ions (Ca^2+) and thereby activate platelets. The Ca ionophore A23187 works by triggering release of Ca^2+ from the dense tubular system of platelets and is a potent activator of platelets. A23187 was used to test if FFN246 loaded platelets would release FFN246 into the supernatant upon activation.
# Platelets were then washed twice in buffer containing prostaglandin E1 (PGE1) and apyrase to minimize platelet activation. The washed platelets were resuspended in Mg^2+/Ca^2+ buffer without inhibitors. Washed platelets were then incubated with A23187 for 45 minutes, after which platelets were centrifuged for 10 minutes at 576×g. Fluorescence in the platelet releasate/supernatant was measured in a BMG Labtech Fluostar Optima fluorometer at an appropriate emission/excitation spectra. Gain was set using the FFN246 releasate for each concentration at 50% of maximum signal.
# [2] = test system: healthy donor washed platelets; test: FFN246 release on platelet activation with HIT-like monoclonal antibody KKO (Example 4, FIG. 3); type: cell-based; conditions: for MFI of platelet releasate, FFN246+agonist or antibody, no heparin: platelets loaded with 50 μM FFN246, 45 min, collagen 63 nM, SFLLRN 100 μM, KKO alone 25 μg/mL
# Experimental: To examine the effect of various platelet agonists on FFN246 release, healthy donor washed platelets were incubated with 50 μM FFN246 for 30 minutes, followed by addition of 1 mM imipramine for 10 minutes to block further reuptake. Platelets were then incubated with (1) A23187 10 μM; (2) collagen 63 nM; (3) SFLLRN 100 μM; (4) buffer; (5) KKO alone 25 μg/mL; (6) 0.5 U/mL heparin, 25 μg/ml KKO; (7) 10 U/mL heparin, 25 μg/mL KKO; (8) 0.5 U/mL heparin, 25 μg/mL TRA; and (9) A23187 10 μM (no FFN246). Incubation occurred for 45 minutes and platelets were centrifuged for 10 minutes at 576×g. Fluorescence in the platelet releasate was measured in a BMG Labtech Fluostar optima fluorometer at an appropriate emission/excitation spectra. Gain was set using the FFN246 releasate for each concentration at 50% of maximum signal.
# healthy donor platelets [3] = test: FFN246 release with platelet activation by several platelet agonists (Example 3, FIG. 2); type: cell-based; conditions: for MFI of platelet releasate, FFN246+agonist: platelets loaded with 50 μM FFN246, 45 min, A23187 10 μM, ADP 25 μM, ristocetin 73 μM, collagen 63 nM, IIa 278 nM, PAR4 peptide 200 μM, SFLLRN 100 μM
# Experimental: To determine if FFN246 loaded platelets release FFN246 with other platelet agonists and receptor mechanisms, FFN246 release was examined by incubating platelets with several platelet secretogogues, including collagen, IIa, PAR4, SFLLRN. […] Collagen stimulates the GP VI receptor; ADP stimulates the P2Y1 and P2Y12 receptors; IIa activates PAR1 and PAR4 receptors; SFLLRN binds to the PAR1 receptor; PAR4 agonist binds the PAR4 receptor.
# To examine the effect of various platelet agonists on FFN246 release, healthy donor platelets were washed and incubated with and without FFN246 (50 μM) for 30 minutes, followed by the addition of 1 mM imipramine for 10 minutes to block further reuptake. Platelets were then incubated with the various conditions: (1) A23187 10 μM; (2) buffer alone; (3) ADP 25 μM; (4) ristocetin 73 μM; (5) collagen 63 nM; (6) IIa 278 nM; (7) PAR4 peptide 200 μM; (8) SFLLRN 100 μM: and (9) buffer only platelets+A23187 (10 μM) for 45 minutes. Following incubation with agonists, platelets were centrifuged for 10 minutes at 576×g. Fluorescence in the platelet releasate (i.e. supernatant) was measured in a BMG Labtech Fluostar Optima fluorometer at an appropriate emission/excitation spectra. Gain was set using the FFN246 releasate for each concentration at 50% of maximum signal.
# [4] = test system: healthy donor platelet rich plasma; test: Release of FFN246 vs FFN102 from platelets exposed to calcium ionophore (Example 5, FIG. 4); type: cell-based; conditions: 100 μM FFN; for MFI of supernatant, FFN-loaded platelets incubated with ionophore: calcium ionophore
# Experimental: Drawing of donor blood and preparation of donor platelets. 10-20 cc of blood were drawn off into Acid-Citrate Dextrose. 20 mL of whole blood generated 8-10 mL of platelet rich plasma (PRP). The whole blood was spun down at 180 g for 20 minutes without using the brake. Donor PRP was separated and the needed PRP was calculated for each of the FFN246 and buffer conditions. 25 μM of FFN246 was added to the PRP condition labeled “FFN246”. 2.5 μL/mL of PGE1 was added to each PRP condition simultaneously. The mixture was incubated at 37° C. for 30 minutes in a H2O bath. For example, for 2.5 mL PRP, 6.25 μL PGE1 and 6.25 μL FFN246 were added. FFN246 was not added to the buffer PRP condition.
# The mixture was centrifuged at 700 g for 10 minutes with a brake at 22° C. to 26° C. The supernatant was discarded and the platelets were gently resuspended in PGE1/Apyrase buffer 1 mL per mL PRP for 15 minutes at room temperature. For example, 2.5 mL PRP was resuspended in 2.5 mL buffer. This was centrifuged at 700 g for 10 minutes at room temperature with a brake. The supernatant was discarded and FFN246 or platelets were resuspended into 2 mL/PRP of Ca/Mg buffer after using a pipette to completely remove PGE1/apyrase containing buffer above pellet. For example, 2.5 mL of platelets was resuspended with 5 mL of HT Ca/Mg.
# When various conditions were tested, such as NP40, buffer alone, buffer+heparin, SFLLRN, and additional conditions dictated by an experiment, the following aliquots were added: agonist, plasma, or antibody; buffer added to agonist to make 50 μL total; and 150 μL of FFN246 buffer labeled platelets. The conditions were allowed to develop for 1 hour at 37° C. on an agitator. The conditions were then centrifuged at 700 g for 10 mins at room temperature with a brake. 75 μL of the supernatant was added per well in triplicate. Fluorometer analysis was ran within 1 hour at appropriate excitation/emission spectra (FFN246 ex/em (nm): 392/427).
# The amount of FFN246 released from platelets was compared to that of FFN102, a dopaminergic fluorophore. Healthy donor platelet rich plasma was incubated with 100 μM of FFN246, FFN102, or buffer alone. Incubation and washing occurred per the protocol described in Example 1. Resuspended platelets were added either to calcium ionophore or buffer conditions for both FFN246 and FFN102. Supernatant was collected following centrifugation and analyzed using fluorometry.
# 5-HT receptors = conditions: cited from earlier work
# [5] = target: dopamine transporters (DAT) (Homo sapiens, UniProt Q01959); conditions: relative to SERT uptake; cited from earlier work
# [6] = target: norepinephrine transporters (NET) (Homo sapiens, UniProt P23975); conditions: relative to SERT uptake; cited from earlier work
# platelets = test: PF4 addition to assay conditions (platelet activation); type: cell-based; conditions: 30 μg/ml; healthy donor and HIT samples; absence of heparin addition
# Source text: PF4 addition to assay conditions. Platelet factor 4 (PF4) is a 31.2 kDa protein synthesized primarily by megakaryocytes and stored in platelet alpha granules. Positively charged PF4 forms ultra large immune complexes with negatively charged heparin in patients who develop pathological heparin induced thrombocytopenia (HIT).
# dopamine transporters (DAT), sequence (Q01959 whole entry, species assumed): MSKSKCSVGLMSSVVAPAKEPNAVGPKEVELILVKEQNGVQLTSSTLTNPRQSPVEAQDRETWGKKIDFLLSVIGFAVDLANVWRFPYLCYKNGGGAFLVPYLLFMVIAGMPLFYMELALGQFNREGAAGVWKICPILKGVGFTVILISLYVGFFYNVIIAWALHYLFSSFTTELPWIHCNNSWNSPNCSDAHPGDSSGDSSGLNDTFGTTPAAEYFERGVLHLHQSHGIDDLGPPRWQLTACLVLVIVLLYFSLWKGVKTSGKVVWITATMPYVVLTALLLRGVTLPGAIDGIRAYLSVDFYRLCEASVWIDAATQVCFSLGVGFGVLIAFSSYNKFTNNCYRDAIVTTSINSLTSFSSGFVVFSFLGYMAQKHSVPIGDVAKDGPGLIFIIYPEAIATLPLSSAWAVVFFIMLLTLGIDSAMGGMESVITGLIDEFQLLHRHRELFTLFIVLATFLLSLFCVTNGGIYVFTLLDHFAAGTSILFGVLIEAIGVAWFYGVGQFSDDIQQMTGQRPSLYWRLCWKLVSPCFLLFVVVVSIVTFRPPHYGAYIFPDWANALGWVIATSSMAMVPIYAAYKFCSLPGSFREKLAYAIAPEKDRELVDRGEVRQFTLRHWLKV
# norepinephrine transporters (NET), sequence (P23975 whole entry): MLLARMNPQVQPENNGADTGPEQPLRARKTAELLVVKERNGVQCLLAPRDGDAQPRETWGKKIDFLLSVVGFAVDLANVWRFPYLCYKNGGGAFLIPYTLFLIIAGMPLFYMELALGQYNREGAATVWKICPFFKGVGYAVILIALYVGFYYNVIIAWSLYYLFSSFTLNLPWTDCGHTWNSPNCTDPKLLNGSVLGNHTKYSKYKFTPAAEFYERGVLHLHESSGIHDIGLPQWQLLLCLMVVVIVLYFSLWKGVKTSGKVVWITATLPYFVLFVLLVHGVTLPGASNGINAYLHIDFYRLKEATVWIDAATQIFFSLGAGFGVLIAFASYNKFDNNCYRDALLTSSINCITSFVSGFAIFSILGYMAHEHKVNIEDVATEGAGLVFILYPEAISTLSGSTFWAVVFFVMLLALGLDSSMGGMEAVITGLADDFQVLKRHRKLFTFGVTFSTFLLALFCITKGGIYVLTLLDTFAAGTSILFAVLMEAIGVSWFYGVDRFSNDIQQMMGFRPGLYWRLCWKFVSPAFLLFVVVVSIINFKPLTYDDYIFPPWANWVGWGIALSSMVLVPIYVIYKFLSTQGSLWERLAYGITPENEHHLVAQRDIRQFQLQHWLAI
molecule,measurement,setting,value
CNc1ccc2oc(C[C@H]3O[C@@]4(CC[C@H]3C)O[C@H]([C@H](C)C(=O)c3ccc[nH]3)[C@H](C)C[C@H]4C)nc2c1C(=O)O [A23187],"MFI of platelet releasate, buffer+A23187 (no FFN246)",healthy donor platelets [1]; background paired with 10 uM FFN246 condition,"10,100"
same,"MFI of platelet releasate, buffer+A23187 (no FFN246)",healthy donor platelets [1]; background paired with 25 μM FFN246 condition,"4,707"
same,"MFI of platelet releasate, buffer+A23187 (no FFN246)",healthy donor platelets [1]; background paired with 50 μM FFN246 condition,"3,461"
same,"MFI of platelet releasate, buffer+A23187 (no FFN246)",healthy donor platelets [1]; background paired with 100 μM FFN246 condition,"1,676"
same,"MFI of platelet releasate, buffer+calcium ionophore (no FFN246)","[2]; A23187 10 μM, no FFN246",11399
same,"MFI of platelet releasate, FFN246+agonist or antibody, no heparin",[2]; A23187 10 μM,32674
same,"MFI of platelet releasate, buffer+calcium ionophore (no FFN246)",healthy donor platelets [3]; buffer only platelets + A23187 10 μM,12526
same,"MFI of platelet releasate, FFN246+agonist",healthy donor platelets [3],31924
"Nc1ncnc2c1ncn2[C@@H]1O[C@H](COP(=O)(O)OP(=O)(O)O)[C@@H](O)[C@H]1O [ADP, adenosine diphosphate]","MFI of platelet releasate, FFN246+agonist",healthy donor platelets [3],14013
Cl.NCCc1cc(=O)oc2cc(O)c(Cl)cc12 [FFN102],"MFI of supernatant, FFN-loaded platelets incubated with buffer",[4],7247+352
same,"MFI of supernatant, FFN-loaded platelets incubated with ionophore",[4],9845+352
NCCc1ccc2[nH]c3cccc(F)c3c(=O)c2c1 [FFN246],"MFI of platelet releasate, FFN246+A23187",healthy donor platelets [1]; 10 uM FFN246,"25,790"
same,"MFI of platelet releasate, FFN246+A23187",healthy donor platelets [1]; 25 μM FFN246,"36,124"
same,"MFI of platelet releasate, FFN246+A23187",healthy donor platelets [1]; 50 μM FFN246,"30,470"
same,"MFI of platelet releasate, FFN246+A23187",healthy donor platelets [1]; 100 μM FFN246,"35,405"
same,"MFI of platelet releasate, FFN246+buffer","[2]; 50 μM FFN246, no agonist",11688
same,"MFI of supernatant, FFN-loaded platelets incubated with buffer",[4],"15,692+1203"
same,"MFI of supernatant, FFN-loaded platelets incubated with ionophore",[4],32901+448
same,activity at 5-HT receptors,5-HT receptors,no activity at 5-HT receptors
same,binding to neurotransmitter receptors,5-HT receptors,does not bind to neurotransmitter receptors
same,"uptake by dopamine transporters (DAT), lower than SERT",[5],31%
same,"MFI of platelet releasate, FFN246+buffer","healthy donor platelets [3]; 50 μM FFN246, no agonist",12199
same,"uptake by norepinephrine transporters (NET), lower than SERT",[6],23%
SFLLRN,"MFI of platelet releasate, FFN246+agonist or antibody, no heparin",[2]; A23187 10 μM,25426
same,"MFI of platelet releasate, FFN246+agonist",healthy donor platelets [3],26703
collagen,"MFI of platelet releasate, FFN246+agonist or antibody, no heparin",[2]; A23187 10 μM,24388
same,"MFI of platelet releasate, FFN246+agonist",healthy donor platelets [3],24369
ristocetin,"MFI of platelet releasate, FFN246+agonist",healthy donor platelets [3],12247
"PF4: 31.2 kDa protein synthesized primarily by megakaryocytes and stored in platelet alpha granules (protein, UniProt P02776 32-101, looked up) Platelet factor 4: EAEEDGDLQCLCVKTTSQVRPRHITSLEVIKAGPHCPTAQLIATLKNGRKICLDLQAPLYKKIIKKLLES",platelet activation by exogenous PF4 added to plasma conditions,platelets,led to platelet activation
